Source: patent US20100036088A1, “Selective poly-N-substituted glycine antibiotics” (priority 2008, published 2010)
Square brackets hold non-standard residues; d marks the D form. Peptide text beside a SMILES is read from it. Nspe = C[C@H](NCC(=O)O)c1ccccc1; Nlys = NCCCCNCC(=O)O

Columns and labels:
[1] = test system: A549 lung epithelial cells; assay: MTS assay, metabolic inhibition
Experimental: The biocompatibility of selected oligomers with A549 lung epithelial cells was evaluated using the MTS [3-(4,5-dimethylthiazol-2-yl)-5-(3-carboxymethoxyphenyl)-2-(4-sulfophenyl)-2H-tetrazolium] assay.
MTS Assays. A549 carcinoma-derived lung epithelial cells (ATTC CCL-185) were cultured in Ham's F12K media (ATTC, Manassas, Va.). A peptoid solution plate (100 μL/well) was prepared by serial dilution of aqueous peptoid stocks in media. Peptoid solutions were transferred onto a 96-well plate of day-old cell monolayers containing 100 μL/well media with ˜5000 cells/well. MTS reagent (Promega Corporation, Madison, Wis.) (40 μL/well) was added to each well and the plate was incubated at 37° C. for 3 h, after which absorbance at 490 nm was determined. Percent inhibition was determined as [1−(A−Atest blank)/(Acontrol−Ablank)]×100, where A is the absorbance of the test well and Acontrol the average absorbance of wells with cells exposed to media and MTS (no peptoid). Atest blank (media, MTS, and peptoid) and Ablank (media and MTS) were background absorbances measured in the absence of cells. The average of six replicates are reported, and error bars show one standard deviation.

[2] = test system: Staphyloccus aureus (ATCC #25923); assay: Murine intraperitoneal infection model; type: in vivo; conditions: mouse, 4 mg/kg I.P.; eleven mice treated with 1-Nhis6,12
Experimental: Using a murine peritoneal injection mouse model, the ability of peptoids to treat infection was evaluated in vivo. The results from three separate studies of peptoid 1 and two of peptoid 1-Nhis6,12 against saline treated controls are shown in FIG. 7. The horizontal line represents the geometric mean of each population.
Murine intraperitoneal infection model. Bacteria was prepared by inoculating 5 mL of MHB with a single colony of Staphyloccus aureus (ATCC #25923) from a freshly streaked plate and grown overnight at 37 C. The following morning, the bacteria was subcultured by diluting 1/3 in MHB and grown for approximately 1.5 hours. The bacteria were then diluted 10-fold in a 5% mucin in PBS solution and thoroughly mixed. A sample was reserved to later determine the amount of bacteria the mice received.
Mice were weighed, marked, and injected I.P. with 200 uL of S. aureus inoculum. Four hours post infection, mice were treated I.P. with 4 mg/kg peptoid (˜100 ug per mouse). The infection is allowed to proceed overnight. Mice were euthanized by CO2 asphyxiation after 24 hours, and the peritoneal cavity was exposed and lavaged with 5 mL PBS. The lavage was mixed and reserved on ice until plating. […] Colonies were counted the following day, and the CFU/ml of each sample was calculated. […]

B. subtilis BR151 = type: cell-based; conditions: Table 1
From the text: An initial set of 15 ampetoid analogs was synthesized to determine whether peptoids are affected by structural and sequence modifications in a manner consistent with AMP activities. The designs for ampetoids in this library were derived from two antibacterial and selective amphipathic dodecamers, 1 and 2. Peptoid 1 [H-(Nlys-Nspe-Nspe)4—NH2] is composed of 2/3 Nspe, the peptoid analog of phenylalanine, and 1/3 Nlys, the peptoid analog of lysine (see FIG. 1 for the structures of representative peptoid monomers and corresponding N-substituents). Peptoid 2 [H-(Nlys-Nssb-Nspe)4—NH2] contains 1/3 isoleucine-like Nssb monomers in place of Nspe. The variant sequences were designed to effect changes in chirality, length, hydrophobicity, charge, and amphipathicity. All of these compounds were tested for antibacterial activity against representative BSL1 Gram-negative (E. coli JM109) and Gram-positive (B. subtilis BR151) bacterial strains. As an initial measure of selectivity, the lytic activity of the peptoids was determined against human erythrocytes. Table 1 summarizes the sequences synthesized, the solvent composition at RP-HPLC elution as a relative measure of molecular hydrophobicity, and antibacterial and hemolytic activities.
(§1) Antibacterial assays. MICs were determined according to CLSI M7-A6 protocols in a 96-well microtiter plate. In test wells, 50 μL bacterial inoculum (5×10^5 CFU/ml) in Mueller-Hinton broth (MHB) was added to 50 μL peptoid solution in MHB (prepared by 1:2 serial dilutions). Positive controls contained 50 μL inoculum and 50 μL MHB without peptoid. […] MIC values reported were reproducible between three independent experimental replicates, each consisting of two parallel trials. Broad-spectrum antimicrobial susceptibility testing was performed against BSL2 pathogens by Nova Biologicals, Inc. (Conroe, Tex.).

E. coli = type: cell-based; conditions: Table 2; cation-adjusted broth
Experimental: as §1
(§2) Screening antibacterial assays. MICs were determined in 96-well microtiter plates in accordance with CLSI M7-A6 protocols. Peptoid solutions with 50 μL total volume were prepared using 2:1 serial dilutions. 50 μL of bacteria inoculum (1×10^6 CFU/mL) prepared in cation-adjusted Mueller-Hinton broth (CAMHB) was added to test wells. Control wells contained 100 μL MHB (no growth) or 50 μL inoculums with 50 μL MHB with no peptoid. […] Reported values were reproducible over three experiments, each containing two parallel trials.

B. subtilis = type: cell-based; conditions: Table 2; cation-adjusted broth
Experimental: as §1, §2

[3] = test system: both strains of E. faecalis; type: cell-based; conditions: range over strains
Experimental: The activities of ampetoids tested against BSL2 Gram-positive strains, however, compared very favorably to those of pexiganan.
Broad-spectrum antibacterial assays. MICs of compounds were determined by microdilution procedure in Mueller-Hinton broth (MHB) in accordance with CLSI M7-A6 protocols in a manner similar to that described for the screen antibacterial assays. Inoculated microtiter plates were incubated at 35° C. for 24 hours prior to the result being recorded. Four ATCC strains that were used as standards are recommended by CLSI: Pseudomonas aeruginosa ATCC 27853, Escherichia coli ATCC 25922, Staphylococcus aureus ATCC 29213 and Enterococcus faecalis ATCC 29212. Other strains from the ATCC collection include Proteus vulgaris ATCC 49132, Proteus mirabilis ATCC 35659, Klebsiella pneumoniae ATCC 33495, Enterobacter aerogenes ATCC 35029 and Serratia marcescens ATCC 13880. S. aureus NRS100 (COL) is a well characterized methicillian-resistant S. aureus (MRSA) strain. The strains S. aureus VAN1 and S. aureus VAN2, vancomycin-resistant MRSA strains that were isolated in Michigan and Pennsylvania, were the first vancomycin-resistant strains clinically isolated. S. aureus NRS119 and S. aureus NRS120 are linezolid-resistant isolates from the Network on Antimicrobial Resistance in S. aureus (NARSA) collection. E. faecalis 99 and E. faecium 106 are vancomycin-resistant enterococcal strains.

## C[C@@H](c1ccccc1)N(CC(N)=O)C(=O)CN(C(=O)CN(CCCCN)C(=O)CN(C(=O)CN(C(=O)CN(CCCCN)C(=O)[C@@H]1CCCN1C(=O)CN(C(=O)CN(CCCCN)C(=O)CN(C(=O)CN(C(=O)CNCCCCN)[C@@H](C)c1ccccc1)[C@@H](C)c1ccccc1)[C@@H](C)c1ccccc1)[C@@H](C)c1ccccc1)[C@@H](C)c1ccccc1)[C@@H](C)c1ccccc1 [1-Pro6, H-Nlys-Nspe-Nspe-Nlys-Nspe-L-Pro-(Nlys-Nspe-Nspe)2-NH2] (H-[Nlys][Nspe][Nspe][Nlys][Nspe]P[Nlys][Nspe][Nspe][Nlys][Nspe][Nspe]-NH2)
[1]
  ID10 relative to that of pexiganan: 10 times

## C[C@@H](c1ccccc1)N(CC(N)=O)C(=O)CN(C(=O)CN(CCCCN)C(=O)CN(C(=O)CN(C(=O)CN(CCCCN)C(=O)CN(C(=O)CN(C(=O)CN(CCCCN)C(=O)CN(C(=O)CN(C(=O)CNCCCCN)[C@@H](C)c1ccccc1)[C@@H](C)c1ccccc1)[C@@H](C)c1ccccc1)[C@@H](C)c1ccccc1)[C@@H](C)c1ccccc1)[C@@H](C)c1ccccc1)[C@@H](C)c1ccccc1 [compound 1, H-(NLys-Nspe-Nspe)4-NH2] (H-[Nlys][Nspe][Nspe][Nlys][Nspe][Nspe][Nlys][Nspe][Nspe][Nlys][Nspe][Nspe]-NH2)
[2]
  mice that died prematurely during the exposure period: no mice
B. subtilis BR151
  B. subtilis MIC: 0.88 µM
E. coli
  E. coli MIC: 6.3 µM
B. subtilis
  B. subtilis MIC: 1.6 µM
[3]
  MIC against both strains of E. faecalis: 4 to 8 µg/mL
